Tests used:
Format in all cases: cell-based
TLR3 = target: T1, TLR3 (Homo sapiens, UniProt O15455); assay: poly(I:C)-induced TNF-α or IL-6 secretion in THP1-derived macrophages; details: dose-dependent manner, FIGS. 4E-4G
T1 construct: endogenous in cells; host or cells: THP1-derived macrophages (PMA-differentiated)
T1 sequence (O15455 24-904): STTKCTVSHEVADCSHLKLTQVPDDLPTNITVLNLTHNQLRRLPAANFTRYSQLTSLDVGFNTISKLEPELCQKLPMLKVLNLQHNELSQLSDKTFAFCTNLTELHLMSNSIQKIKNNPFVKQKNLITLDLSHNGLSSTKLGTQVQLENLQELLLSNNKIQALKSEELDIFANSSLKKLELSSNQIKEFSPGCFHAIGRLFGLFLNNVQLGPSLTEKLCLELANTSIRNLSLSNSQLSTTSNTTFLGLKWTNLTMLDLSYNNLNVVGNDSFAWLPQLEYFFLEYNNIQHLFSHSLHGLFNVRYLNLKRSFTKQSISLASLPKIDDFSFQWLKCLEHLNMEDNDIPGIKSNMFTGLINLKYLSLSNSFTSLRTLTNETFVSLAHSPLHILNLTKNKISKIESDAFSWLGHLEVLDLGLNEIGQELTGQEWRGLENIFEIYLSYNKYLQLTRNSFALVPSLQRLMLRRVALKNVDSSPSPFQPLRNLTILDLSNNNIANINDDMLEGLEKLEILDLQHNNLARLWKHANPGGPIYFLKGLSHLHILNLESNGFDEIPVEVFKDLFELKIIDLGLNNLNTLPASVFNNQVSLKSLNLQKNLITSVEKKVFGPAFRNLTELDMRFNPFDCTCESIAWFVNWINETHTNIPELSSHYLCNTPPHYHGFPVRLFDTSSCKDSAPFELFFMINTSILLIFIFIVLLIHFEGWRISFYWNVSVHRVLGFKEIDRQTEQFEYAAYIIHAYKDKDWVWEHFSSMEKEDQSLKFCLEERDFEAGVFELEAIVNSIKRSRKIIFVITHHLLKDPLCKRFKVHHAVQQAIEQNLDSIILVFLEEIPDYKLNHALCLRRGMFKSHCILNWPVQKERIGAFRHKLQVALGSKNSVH

TLR4 = target: T2, TLR4 (Homo sapiens, UniProt O00206+Q9Y6Y9); assay: LPS-induced TNF-α secretion (ELISA) in THP1-derived macrophages; details: 1 to 50 μM, FIG. 4D
T2 construct: endogenous in cells; host or cells: THP1-derived macrophages (PMA-differentiated)

TLR7 = target: T3, TLR7 (Homo sapiens, UniProt Q9NYK1); assay: IMQ, R848 or CL075-induced TNF-α or IL-6 secretion in THP1-derived macrophages; details: R848 or CL075, dose-dependent manner, FIGS. 4E-4G
T3 construct: endogenous in cells; host or cells: THP1-derived macrophages (PMA-differentiated)
T3 sequence (Q9NYK1 27-1049): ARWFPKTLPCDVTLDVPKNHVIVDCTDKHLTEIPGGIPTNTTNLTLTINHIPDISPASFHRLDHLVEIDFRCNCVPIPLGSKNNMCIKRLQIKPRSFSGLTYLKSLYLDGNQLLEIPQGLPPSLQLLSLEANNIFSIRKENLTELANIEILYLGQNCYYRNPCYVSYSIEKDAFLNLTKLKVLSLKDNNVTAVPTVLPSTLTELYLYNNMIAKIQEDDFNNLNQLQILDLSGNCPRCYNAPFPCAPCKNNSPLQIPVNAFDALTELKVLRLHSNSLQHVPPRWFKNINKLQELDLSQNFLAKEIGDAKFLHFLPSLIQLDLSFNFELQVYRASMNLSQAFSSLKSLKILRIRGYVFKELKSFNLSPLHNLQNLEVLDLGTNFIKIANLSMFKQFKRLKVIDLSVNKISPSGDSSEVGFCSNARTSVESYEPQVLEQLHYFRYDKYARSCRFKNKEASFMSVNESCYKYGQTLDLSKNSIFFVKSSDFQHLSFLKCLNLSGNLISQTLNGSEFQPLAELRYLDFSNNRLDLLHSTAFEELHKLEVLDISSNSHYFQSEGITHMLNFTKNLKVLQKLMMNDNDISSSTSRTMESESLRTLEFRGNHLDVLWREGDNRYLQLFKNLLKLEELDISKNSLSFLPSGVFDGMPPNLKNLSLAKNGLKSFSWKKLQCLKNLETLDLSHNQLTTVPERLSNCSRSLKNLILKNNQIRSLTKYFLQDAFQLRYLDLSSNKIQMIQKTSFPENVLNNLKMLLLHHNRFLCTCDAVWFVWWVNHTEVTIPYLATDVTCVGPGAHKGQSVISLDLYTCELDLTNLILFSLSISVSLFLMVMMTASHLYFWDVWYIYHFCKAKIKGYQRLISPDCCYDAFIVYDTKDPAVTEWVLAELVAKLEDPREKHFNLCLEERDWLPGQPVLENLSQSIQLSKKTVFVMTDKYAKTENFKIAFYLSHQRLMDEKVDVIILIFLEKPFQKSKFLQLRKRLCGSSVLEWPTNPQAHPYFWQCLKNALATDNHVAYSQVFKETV

T2 sequence (O00206 24-839): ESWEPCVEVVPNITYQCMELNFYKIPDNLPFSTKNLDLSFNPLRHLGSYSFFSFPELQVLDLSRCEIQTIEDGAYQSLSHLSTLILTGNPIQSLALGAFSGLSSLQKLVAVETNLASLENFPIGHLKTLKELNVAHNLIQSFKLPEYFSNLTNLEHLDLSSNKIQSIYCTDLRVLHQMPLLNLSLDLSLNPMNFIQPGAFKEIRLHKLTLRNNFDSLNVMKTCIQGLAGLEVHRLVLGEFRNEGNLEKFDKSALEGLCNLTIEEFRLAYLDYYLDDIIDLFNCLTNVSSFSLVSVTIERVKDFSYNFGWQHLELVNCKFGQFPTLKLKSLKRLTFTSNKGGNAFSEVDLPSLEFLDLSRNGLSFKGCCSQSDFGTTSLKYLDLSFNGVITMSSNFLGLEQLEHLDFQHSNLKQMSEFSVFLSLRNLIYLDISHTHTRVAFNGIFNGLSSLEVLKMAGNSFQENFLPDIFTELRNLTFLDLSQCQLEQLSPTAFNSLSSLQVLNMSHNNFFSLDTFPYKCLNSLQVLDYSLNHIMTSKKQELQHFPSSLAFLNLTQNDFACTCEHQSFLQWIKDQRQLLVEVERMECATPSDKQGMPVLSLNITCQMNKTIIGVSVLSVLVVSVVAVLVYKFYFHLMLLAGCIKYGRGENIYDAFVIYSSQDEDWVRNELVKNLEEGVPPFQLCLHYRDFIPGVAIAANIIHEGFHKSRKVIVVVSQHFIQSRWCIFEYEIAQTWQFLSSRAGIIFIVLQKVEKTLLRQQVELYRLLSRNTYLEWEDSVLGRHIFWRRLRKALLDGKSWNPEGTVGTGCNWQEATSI
T2 sequence (Q9Y6Y9 17-160 limits assumed): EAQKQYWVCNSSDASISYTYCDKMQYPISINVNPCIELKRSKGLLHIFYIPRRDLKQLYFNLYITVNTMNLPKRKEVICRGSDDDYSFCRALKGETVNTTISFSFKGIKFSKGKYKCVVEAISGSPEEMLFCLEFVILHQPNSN

TLR3-mediated TNF-α or IL-6 secretion (TLR3): significantly inhibited | TLR4 (LPS)-mediated TNF-α secretion (TLR4): did not block | TLR7-mediated TNF-α or IL-6 secretion (TLR7): significantly inhibited
SMILES: Nc1cccc(COc2cccnc2N)c1 [TAC5-a, 3-((3-aminobenzyl)oxy)pyridin-2-amine]

From US11629155B2, “Small molecule antagonist compound TAC5 series having toll-like receptor 3/7/8/9 inhibitory function” (AJOU UNIVERSITY INDUSTRY-ACADEMIC COOPERATION FOUNDATION, priority 2018, dated 2023)
